Tests used:
[1] = target: T1, Axl+ Ba/F3 cells (Homo sapiens, UniProt P30530); assay: Ba/F3 proliferation assay, Axl+; type: cell-based; details: Table 4; ± S.D., n = 3; 48 h Cell Titer Glo; read-out: IC50, Axl
T1 sequence (P30530 1-894): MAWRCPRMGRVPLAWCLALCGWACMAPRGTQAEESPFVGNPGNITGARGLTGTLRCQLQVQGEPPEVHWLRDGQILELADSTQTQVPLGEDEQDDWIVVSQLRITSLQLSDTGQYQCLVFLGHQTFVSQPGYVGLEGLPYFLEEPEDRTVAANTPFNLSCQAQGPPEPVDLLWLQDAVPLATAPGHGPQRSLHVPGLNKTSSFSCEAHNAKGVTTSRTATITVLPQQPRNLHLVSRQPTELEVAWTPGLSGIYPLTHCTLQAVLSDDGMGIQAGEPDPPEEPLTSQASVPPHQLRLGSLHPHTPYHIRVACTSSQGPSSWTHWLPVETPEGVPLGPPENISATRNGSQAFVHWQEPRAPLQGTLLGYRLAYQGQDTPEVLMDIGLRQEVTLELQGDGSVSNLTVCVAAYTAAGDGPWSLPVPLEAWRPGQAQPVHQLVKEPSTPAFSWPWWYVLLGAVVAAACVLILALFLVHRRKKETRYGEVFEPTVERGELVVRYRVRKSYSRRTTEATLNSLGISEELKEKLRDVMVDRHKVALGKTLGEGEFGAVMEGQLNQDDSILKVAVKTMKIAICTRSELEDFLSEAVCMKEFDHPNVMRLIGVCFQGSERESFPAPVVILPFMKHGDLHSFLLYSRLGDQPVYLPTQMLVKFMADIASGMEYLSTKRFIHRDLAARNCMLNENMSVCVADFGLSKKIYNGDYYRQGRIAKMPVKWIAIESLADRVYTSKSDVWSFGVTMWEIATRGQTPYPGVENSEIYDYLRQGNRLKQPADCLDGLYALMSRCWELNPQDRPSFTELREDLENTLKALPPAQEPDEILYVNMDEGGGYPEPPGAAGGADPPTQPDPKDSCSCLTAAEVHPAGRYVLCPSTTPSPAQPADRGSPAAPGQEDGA
How it was run: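 Ba/F3 cells transduced with Axl and selected for IL-3-independent growth. Cells combined with drug dilutions, and with IL-3 (10 ng/mL) or NRG (6.25 ng/mL) where needed, for 48 h at 37 °C. CellTiter-Glo read, normalized to DMSO, fitted with variable-slope log(inhibitor) regression.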

[2] = target: T2, SGK1 (Homo sapiens, UniProt O00141); assay: Nanosyn in vitro kinase profiling: SGK1; type: biochemical; details: for inhibition at 1 µM: compound at 1 μM
T2 sequence (O00141 1-431): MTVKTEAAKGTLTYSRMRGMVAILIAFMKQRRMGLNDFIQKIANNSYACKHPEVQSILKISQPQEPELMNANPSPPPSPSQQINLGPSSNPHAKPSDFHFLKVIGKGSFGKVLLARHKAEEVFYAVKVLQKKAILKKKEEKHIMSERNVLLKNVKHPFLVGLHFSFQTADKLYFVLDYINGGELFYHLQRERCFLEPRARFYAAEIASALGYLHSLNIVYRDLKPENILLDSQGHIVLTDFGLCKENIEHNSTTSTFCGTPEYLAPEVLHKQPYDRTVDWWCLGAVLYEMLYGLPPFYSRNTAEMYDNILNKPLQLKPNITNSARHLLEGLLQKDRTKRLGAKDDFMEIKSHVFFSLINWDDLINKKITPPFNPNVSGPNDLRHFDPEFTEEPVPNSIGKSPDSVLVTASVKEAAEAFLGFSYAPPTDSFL
Description: (§1) This was confirmed by in vitro profiling against a panel of kinases, with compound 2 only showing potent inhibition of EGFR and Ab1 (Table 2).
(§2) In vitro Kinome Screen. In vitro profiling of compound 2 at 100 nM was conducted by Nanosyn.

[3] = target: DYRK1A (Homo sapiens, UniProt Q13627); assay: Nanosyn in vitro kinase profiling: DYRK1A; type: biochemical; details: for inhibition at 1 µM: compound at 1 μM
Description: as §1, §2

[4] = target: CK1-EPSILON (Homo sapiens, UniProt P49674); assay: Nanosyn in vitro kinase profiling: CK1-EPSILON; type: biochemical; details: for inhibition at 1 µM: compound at 1 μM
Chain of CK1-EPSILON (P49674 whole entry): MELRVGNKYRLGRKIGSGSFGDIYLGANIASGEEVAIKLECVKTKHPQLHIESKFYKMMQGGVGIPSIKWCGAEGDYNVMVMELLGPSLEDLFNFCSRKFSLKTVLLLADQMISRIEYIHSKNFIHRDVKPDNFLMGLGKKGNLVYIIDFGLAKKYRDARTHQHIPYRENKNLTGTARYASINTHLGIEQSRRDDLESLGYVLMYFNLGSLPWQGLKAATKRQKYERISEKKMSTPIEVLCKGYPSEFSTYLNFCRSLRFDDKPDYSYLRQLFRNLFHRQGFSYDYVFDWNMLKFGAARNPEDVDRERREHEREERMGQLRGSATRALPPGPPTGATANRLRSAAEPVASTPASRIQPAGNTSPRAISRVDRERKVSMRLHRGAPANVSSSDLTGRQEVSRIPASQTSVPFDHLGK
Description: as §1, §2

[5] = target: T3, NEK2 (Homo sapiens, UniProt P51955); assay: Nanosyn in vitro kinase profiling: NEK2; type: biochemical; details: for inhibition at 1 µM: compound at 1 μM
T3 sequence (P51955 1-445): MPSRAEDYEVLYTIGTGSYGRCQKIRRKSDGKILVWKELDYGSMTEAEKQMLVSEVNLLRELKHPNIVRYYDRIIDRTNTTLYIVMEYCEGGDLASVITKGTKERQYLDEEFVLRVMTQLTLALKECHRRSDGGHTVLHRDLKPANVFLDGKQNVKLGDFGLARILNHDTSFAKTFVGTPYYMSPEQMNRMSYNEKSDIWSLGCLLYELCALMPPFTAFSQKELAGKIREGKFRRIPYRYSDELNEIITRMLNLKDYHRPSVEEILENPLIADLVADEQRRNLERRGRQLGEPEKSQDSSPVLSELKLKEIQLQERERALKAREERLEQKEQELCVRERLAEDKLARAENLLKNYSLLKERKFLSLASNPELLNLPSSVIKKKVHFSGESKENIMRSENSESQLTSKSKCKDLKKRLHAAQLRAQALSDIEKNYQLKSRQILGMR
Description: as §1, §2

[6] = target: FGFR1 (Homo sapiens, UniProt P11362); assay: Nanosyn in vitro kinase profiling: FGFR1; type: biochemical; details: for inhibition at 1 µM: compound at 1 μM
Chain of FGFR1 (P11362 22-822): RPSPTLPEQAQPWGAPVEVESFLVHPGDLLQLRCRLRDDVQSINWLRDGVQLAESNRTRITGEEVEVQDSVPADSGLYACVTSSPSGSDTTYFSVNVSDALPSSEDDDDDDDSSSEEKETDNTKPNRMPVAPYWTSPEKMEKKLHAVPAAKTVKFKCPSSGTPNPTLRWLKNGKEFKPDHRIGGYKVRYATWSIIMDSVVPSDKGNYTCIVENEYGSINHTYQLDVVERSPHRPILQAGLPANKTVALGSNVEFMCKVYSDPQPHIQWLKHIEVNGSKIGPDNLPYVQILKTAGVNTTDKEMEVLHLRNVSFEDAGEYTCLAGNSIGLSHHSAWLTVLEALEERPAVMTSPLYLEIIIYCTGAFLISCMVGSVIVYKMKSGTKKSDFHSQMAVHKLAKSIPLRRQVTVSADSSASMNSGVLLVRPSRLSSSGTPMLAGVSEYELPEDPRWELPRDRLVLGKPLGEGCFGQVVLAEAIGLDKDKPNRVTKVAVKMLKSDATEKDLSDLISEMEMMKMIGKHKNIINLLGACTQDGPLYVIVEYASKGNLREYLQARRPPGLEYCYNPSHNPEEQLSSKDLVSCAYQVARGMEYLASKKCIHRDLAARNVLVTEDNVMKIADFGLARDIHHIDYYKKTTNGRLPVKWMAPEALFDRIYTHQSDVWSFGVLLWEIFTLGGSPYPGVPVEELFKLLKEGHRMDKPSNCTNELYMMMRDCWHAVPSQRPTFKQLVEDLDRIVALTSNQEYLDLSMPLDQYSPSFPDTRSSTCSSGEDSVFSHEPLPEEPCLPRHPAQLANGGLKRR
Description: as §1, §2

inhibition at 1 µM [2] [%]	inhibition at 1 µM [3] [%]	inhibition at 1 µM [4] [%]	inhibition at 1 µM [5] [%]	inhibition at 1 µM [6] [%]	inhibition at 0.1 µM ([2]; compound at 100 nM) [%]	inhibition at 0.1 µM ([3]; compound at 100 nM) [%]	inhibition at 0.1 µM ([4]; compound at 100 nM) [%]	inhibition at 0.1 µM ([5]; compound at 100 nM) [%]	inhibition at 0.1 µM ([6]; compound at 100 nM) [%]	SMILES	GI50 [1] [nM]
										CS(=O)(=O)CCNCc1ccc(-c2ccc3ncnc(Nc4ccc(OCc5cccc(F)c5)c(Cl)c4)c3c2)o1 [lapatinib]	> 3330
31	41	11	-9	93						COc1ccc(-c2ccoc2)cc1Nc1ncnc2[nH]cc(-c3cc[nH]n3)c12 [compound 3, N-(5-(furan-3-yl)-2-methoxyphenyl)-5-(1H-pyrazol-3-yl)-7H-pyrrolo[2,3-d]pyrimidin-4-amine]	1170 ± 106
53.4	16.7	24.1	2.98	86.3	14.4	5	3.45	1.53	48.3	COc1ccc(-c2ccco2)cc1Nc1ncnc2[nH]nc(-c3ccco3)c12 [compound 2, 3-(furan-2-yl)-N-(5-(furan-2-yl)-2-methoxyphenyl)-1H-pyrazolo[3,4-d]pyrimidin-4-amine]	
